Results from patent US8080423B2, “Reagent containing protease reaction promoter and/or colorant stabilizer” (Asahi Kasei Pharma Corporation, priority 2004, dated 2011).

Assays:
[1] = test system: Neutral protease (manufactured by Toyobo Co., Ltd.); experiment: Screening of protease reaction promoter (Example 1); assay type: biochemical; settings: for protease reaction promoting effect (in words): judged from Table 1; for AH (absorbance from primary calibrator at level 4 (9.88%)) / AL (absorbance from primary calibrator at level 2 (5.38%)) / AH − AL: 660 nm
Description: 1) R-1: Reagent for Protein Decomposition
2) R-2: Reagent for Glycated Amino Acid Detection
The following substances were independently used as a test sample. Note that concentrations described in parentheses each represent a final concentration of the substance in the reagent R1.
Absorbance before the addition of the reagent R-2 and 5 minutes after the addition was measured at 660 nm. […] The AH-AL shown in Table 1 is a difference obtained by subtracting absorbance AL which was obtained from the primary calibrator at level 2 (5.38%) from absorbance AH which was obtained from the primary calibrator at level 4 (9.88%). Here, if AH-AL is large, the sample is judged to have a protease reaction promoting effect. In particular, when AH-AL is 20 or more, the sample has an excellent promoting effect.

hemoglobin = hemoglobin (Homo sapiens, UniProt P68871+P69905); experiment: Measurement of hemoglobin and stability of reagent (Example 9); assay type: physicochemical; settings: Example 2 reagent with 1% promoter; 660 nm; FIG. 1
Description: By using the reagents of Example 2, measurement was performed for a standard product having a known hemoglobin concentration.
Measurement was performed by using an autoanalyzer (Hitachi autoanalyzer 7170S; manufactured by Hitachi Ltd.). 20 μl of a sample was added with 180 μl of each of the reagents, and changes in absorbance were measured at 660 nm. Water was used as a control, and differences in absorbance between the sample and the water were calculated after 5 minutes. 5-serially diluted products of the standard hemoglobin product were used as the sample.
In addition, a preservation test was performed for a reagent in which sarcosinate MN was used as a protease reaction promoter at 37° C. for 4 days. The measurement of 5.5 g/dl of the standard hemoglobin product was performed by using, as a calibrator, a 30-fold diluted product of a standard substance for HbA1c measurement (primary calibrator JDS HbA1c Lot2, manufactured by Health Care Technology Foundation, level 1, hemoglobin concentration of 135 g/L). As a result, the measurement values of the hemoglobin were 54 mAbs, 4.5 g/L before the preservation test and 50 mAbs, 4.6 g/L after the preservation test. From the results, it was assumed that the present reagent is stable for 6 months or longer under refrigeration.

protease = biological target: T1, protease (Bacillus licheniformis, UniProt P00780); experiment: Effect of protease reaction promoter on glycated albumin measurement (Example 12); assay type: biochemical
T1 construct: purchased Sigma Aldrich Japan K.K
Description: The reagents of Example 5 were used. 240 μl of the reagent R-1 which had been incubated to 37° C. was added with 8 μl of a control plasma H (manufactured by BML Inc.); […], and absorbance thereof was measured using a dominant wavelength of 546 nm and a subwavelength of 700 nm. A reaction was initiated at 37° C., and 80 μl of the R-2 reagent was added to the mixture exactly 5 minutes after the initiation. Absorbance before the addition of the R-2 reagent and after 5 minutes of the addition was measured. In addition, measurement was performed for a blank which was prepared by using distilled water instead of the substrate solution. The change in absorbance obtained from the control substrate solution was subtracted by the change in absorbance obtained from the blank sample, to thereby calculate ΔA0. Conversion of the values was performed by simultaneous measurement for a calibrator (manufactured by Asahi Kasei Pharma Corporation) for Lucica GA and comparison of absorbance. The measurement value for albumin was obtained from a difference in absorbance which was obtained by subtracting absorbance immediately before the addition of the R-2 reagent from absorbance immediately after the addition of the sample. […]

[2] = Effect of catalase addition on reagent containing cyclodextrin and colorant (Example 14); assay type: physicochemical; settings: for 500 μM hydrogen peroxide / Blank: DA-67, 2% 2-hydroxypropyl-β-cyclodextrin, 500 U/ml catalase, 37° C.
Description: (§1) 500 μl of the R-1 reagent and 500 μl of the R-2 which had been incubated to 37° C. were mixed. The mixture was incubated to 37° C. for 2 minutes, and absorbance thereof (A0) was measured. The mixture was added with 10 μl of 500 μM hydrogen peroxide or distilled water. The whole was incubated to 37° C., and absorbance exactly 5 minutes after the addition of hydrogen peroxide (A1) was measured, to calculate a change in absorbance ΔA (A1-A0). The absorbance was measured using a wavelength of 750 nm when DA64 was used as the colorant, a wavelength of 660 nm when DA67 was used as the colorant, and a wavelength of 570 nm when 4-AA-TOOS was used as the colorant.
The same operation method as in Example 13 was used. Immediately after the preparation of the reagent, the reagent was preserved at 37° C. for 2 days and 9 days, and measurement of sensitivity of a blank which was distilled water and of hydrogen peroxide was performed.

[3] = Screening of stabilizer for colorant, DA64 (Example 13); assay type: physicochemical; settings: DA-64, 750 nm, 37° C., additives at conc. (1%; IDA 1 mM; Zn, Al 0.1 mM; ferrocyanide 0.01 mM; sorbitol 5%; DMSO 10%)
Description: (§2) The following substances were used as test samples. Note that concentrations described in parentheses each represent a final concentration of the substance in the reagent R-1.
(§3) Tween-20 (1%), Brij35 (1%), Triton X-100 (1%), deoxycholic acid (1%), imino-diacetic acid (IDA; 1 mM), ZnSO4 (0.1 mM), AlCl3 (0.1 mM), potassium ferrocyanate (0.01 mM), sorbitol (5%), glucose (5%), sodium nitrite (2 mM), dimethylsulfoxide (DMSO; 10%) (those substances are manufactured by Wako Pure Chemical Industries, Inc.), 2-hydroxypropyl-β-cyclodextrin (2HP β CD; 0.5%, 2%, 5%) and methyl-β-cyclodextrin (M β CD; 0.5%, 2%, 5%) (those substances are manufactured by Nihon Shokuhin Kako Co., Ltd.).
as §1
(§4) Immediately after the preparation of the reagent, the reagent was preserved at 37° C. for 2 days and 9 days, and measurement of sensitivity of a blank which was distilled water and of hydrogen peroxide was performed.

[4] = Screening of stabilizer for colorant, DA67 (Example 13); assay type: physicochemical; settings: DA-67, 660 nm, 37° C., additives at conc. (1%; IDA 1 mM; Zn, Al 0.1 mM; ferrocyanide 0.01 mM; sorbitol 5%; DMSO 10%)
Description: as §2, §3, §1, §4

[5] = Screening of stabilizer for colorant, MBTH-TOOS (Example 13); assay type: physicochemical; settings: MBTH-TOOS, 570 nm, 37° C., additives at conc. (1%; IDA 1 mM; Zn, Al 0.1 mM; ferrocyanide 0.01 mM; sorbitol 5%; DMSO 10%)
[6] = test sample 1% in R-1, 20 or more = excellent promoting effect

T1 sequence (P00780 106-379): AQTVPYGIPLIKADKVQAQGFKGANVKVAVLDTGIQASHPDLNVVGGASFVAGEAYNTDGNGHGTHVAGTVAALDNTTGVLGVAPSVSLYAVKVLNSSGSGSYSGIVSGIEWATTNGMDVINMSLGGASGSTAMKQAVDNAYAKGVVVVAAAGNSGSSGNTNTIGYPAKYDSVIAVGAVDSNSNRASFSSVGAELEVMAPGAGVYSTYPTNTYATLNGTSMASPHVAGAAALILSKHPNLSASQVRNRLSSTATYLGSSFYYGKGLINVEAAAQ
Sequence of hemoglobin (P69905 2-142 limits assumed): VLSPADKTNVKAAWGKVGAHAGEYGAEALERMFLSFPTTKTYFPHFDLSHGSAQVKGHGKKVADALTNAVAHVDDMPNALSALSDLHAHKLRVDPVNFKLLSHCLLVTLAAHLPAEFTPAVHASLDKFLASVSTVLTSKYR
Sequence of hemoglobin (P68871 2-147 limits assumed): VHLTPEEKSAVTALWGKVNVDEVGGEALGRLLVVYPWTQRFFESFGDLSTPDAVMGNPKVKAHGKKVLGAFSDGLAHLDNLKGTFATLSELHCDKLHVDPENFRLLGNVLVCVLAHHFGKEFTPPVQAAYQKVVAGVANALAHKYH

| Molecule | protease reaction promoting effect (in words) [1] | AH (absorbance from primary calibrator at level 4 (9.88%)) ([1]; test sample 1% in R-1) | AL (absorbance from primary calibrator at level 2 (5.38%)) ([1]; test sample 1% in R-1) | AH − AL [1, 6] [mAbs] | quantification of hemoglobin (in words) (hemoglobin) | blank (distilled water) change in absorbance ([3]; 0 days) [Abs] | blank (distilled water) change in absorbance ([3]; 2 days) [Abs] | blank (distilled water) change in absorbance ([3]; 9 days) [Abs] | blank (distilled water) change in absorbance ([4]; 0 days) [Abs] | blank (distilled water) change in absorbance ([4]; 2 days) [Abs] | blank (distilled water) change in absorbance ([5]; 0 days) [Abs] | blank (distilled water) change in absorbance ([5]; 2 days) [Abs] | further results |
| --- | --- | --- | --- | --- | --- | --- | --- | --- | --- | --- | --- | --- | --- |
| CCCCCCCCCCCCCCCCCC(=O)N(C)CCS(=O)(=O)[O-].[Na+] [SMT, sodium N-stearoyl methyl taurinate] | effects were observed | 110.2 | 86.4 | 23.8 | hemoglobin was able to be quantified |  |  |  |  |  |  |  |  |
| CCCCCCCCCCCC(=O)N(C)CCC(=O)[O-].[Na+] [Alaninate LN-30, sodium lauroyl methyl alaninate] | effects were observed | 92.3 | 65.6 | 26.7 |  |  |  |  |  |  |  |  | sensitivity of the GA measurement (protease; control serum, no dilution, with protease reaction promoter (without: 32 mAbs)): 48 mAbs; increase of reaction rate (protease; with vs without protease reaction promoter): 1.5 folds |
| catalase |  |  |  |  |  |  |  |  |  |  |  |  | 500 μM hydrogen peroxide ([2]; 0 days): 0.510; Blank ([2]; 0 days): 0.057; 500 μM hydrogen peroxide ([2]; 2 days): 0.335; Blank ([2]; 2 days): 0.452; 500 μM hydrogen peroxide ([2]; 9 days): 0.304; Blank ([2]; 9 days): 1.052; effect of catalase addition on blank after preservation (in words) ([2]; Table 4): the blank after preservation significantly decreased |
| O=C(O)CNCC(=O)O [IDA, imino-diacetic acid, reference compound] |  |  |  |  |  | −0.010 | 0.078 | 0.210 | 0.089 | 2.131 | 0.151 | 1.213 | AH (absorbance from primary calibrator at level 4 (9.88%)) ([1]; test sample 1 mM in R-1): 67.7; AH − AL ([1]; test sample 1 mM in R-1): 5.5 mAbs; AL (absorbance from primary calibrator at level 2 (5.38%)) ([1]; test sample 1 mM in R-1): 62.2 |
| TritonX-100 [reference compound] |  | 44.9 | 39.7 | 5.2 |  | −0.005 | 0.080 | 0.221 | 0.085 | 2.100 | 0.146 | 1.135 |  |
| CCCCCCCCCCCCOCCOCCOCCOCCOCCOCCOCCOCCOCCOCCOCC(=O)O [AKYPO-RLM100, polyoxyethylene(10)lauryl ether acetic acid] | effects were observed |  |  | 29.1 | hemoglobin was able to be quantified |  |  |  |  |  |  |  |  |
